The structures appear in SMILES notation. Active and inactive are the calls of the source. No cut-off for these calls is given here.

One experiment has as its system NCI-H1975. Kind of experiment: Antiproliferative activity against human NCI-H1975 cells over expressing EGFR after 48 hrs by MTT assay. The format is functional, cell-based. The settings on record: NCI-H1975, 48 h.
The next experiment deals with HepG2. Nature of the experiment: Antiproliferative activity against human HepG2 cells over expressing EGFR after 48 hrs by MTT assay. The note with it: HepG2, 48 h. The format is functional, cell-based.
Experiment [1] is described as follows: Antiproliferative activity against human SMMC7721 cells over expressing EGFR after 48 hrs by MTT assay. It is filed as functional, cell-based. The note with it: SMMC-7721, 48 h.
The target in experiment [2] is Epidermal growth factor receptor (Homo sapiens) (UniProt P00533). The note with it: NCI-H1975, at 1 µM.
Epidermal growth factor receptor (Homo sapiens), sequence (P00533 whole entry): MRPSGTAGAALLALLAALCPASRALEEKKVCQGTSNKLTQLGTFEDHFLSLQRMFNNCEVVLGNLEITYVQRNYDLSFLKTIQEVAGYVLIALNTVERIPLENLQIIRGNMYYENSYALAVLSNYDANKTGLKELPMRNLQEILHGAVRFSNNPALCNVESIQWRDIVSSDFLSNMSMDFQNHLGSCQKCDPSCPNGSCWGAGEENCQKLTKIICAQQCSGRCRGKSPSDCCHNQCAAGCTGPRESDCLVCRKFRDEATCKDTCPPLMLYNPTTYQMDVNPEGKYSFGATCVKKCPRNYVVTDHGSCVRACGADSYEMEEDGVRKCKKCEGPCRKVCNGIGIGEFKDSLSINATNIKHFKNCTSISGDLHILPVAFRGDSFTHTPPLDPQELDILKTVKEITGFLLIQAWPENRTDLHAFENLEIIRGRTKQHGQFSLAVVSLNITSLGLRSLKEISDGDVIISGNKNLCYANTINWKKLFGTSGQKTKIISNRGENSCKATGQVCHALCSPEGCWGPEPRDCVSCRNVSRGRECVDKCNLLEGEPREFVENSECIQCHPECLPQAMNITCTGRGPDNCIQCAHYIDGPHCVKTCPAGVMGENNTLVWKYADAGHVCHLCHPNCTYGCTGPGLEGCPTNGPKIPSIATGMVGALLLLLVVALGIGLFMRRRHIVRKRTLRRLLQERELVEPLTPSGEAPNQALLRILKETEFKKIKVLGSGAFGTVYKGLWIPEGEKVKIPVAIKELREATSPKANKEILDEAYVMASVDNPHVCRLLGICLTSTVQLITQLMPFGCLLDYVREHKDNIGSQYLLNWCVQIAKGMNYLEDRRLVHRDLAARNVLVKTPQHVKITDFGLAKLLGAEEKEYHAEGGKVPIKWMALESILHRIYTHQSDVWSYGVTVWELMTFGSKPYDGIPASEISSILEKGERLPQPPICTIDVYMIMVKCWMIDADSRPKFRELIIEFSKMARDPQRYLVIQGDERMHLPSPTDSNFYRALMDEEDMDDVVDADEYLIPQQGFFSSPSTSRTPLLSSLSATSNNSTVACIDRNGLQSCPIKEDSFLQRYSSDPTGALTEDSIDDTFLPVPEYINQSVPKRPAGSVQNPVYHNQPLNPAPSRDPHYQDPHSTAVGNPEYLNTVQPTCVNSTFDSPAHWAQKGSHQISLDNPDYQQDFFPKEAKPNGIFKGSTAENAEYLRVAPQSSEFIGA
Description: Inhibition of EGFR autophosphorylation at Tyr1068 site in human NCI-H1975 cells at 1 uM by western blotting analysis

As usually defined, the IC50 is the concentration at which inhibition is half-maximal. Read a high IC50 as a need for much substance. Turning to `CNCCC(=O)Nc1ccc2nc(C)nc(Nc3ccc(F)c(Cl)c3)c2c1`, the 50% inhibitory concentration (IC50) in the experiment on NCI-H1975 is 0.48 µM; in the experiment on HepG2 it was 1.13 µM; in experiment [1] it was 1.98 µM.

Take `Fc1ccc(Nc2ncnc3ccccc23)cc1Cl`: the IC50 in the experiment with NCI-H1975 is 4.51 µM; in the experiment on HepG2 it was > 100 µM; in experiment [1] it was 50.1 µM.

In the case of `Cc1nc(Nc2ccc(F)c(Cl)c2)c2cc(NC(=O)CCN3CCOCC3)ccc2n1`, the IC50 with NCI-H1975 came to 1.14 µM; with HepG2 it was 1.98 µM; in experiment [1], 3.26 µM.

For `COc1cccc(Nc2ncnc3ccccc23)c1`, the concentration for half-maximal inhibition (IC50) in the experiment on NCI-H1975 was 31.3 µM; in the experiment on HepG2, 24.2 µM; in experiment [1], 15.6 µM.

For `CNCCC(=O)Nc1ccc2ncnc(Nc3ccc(F)c(Cl)c3)c2c1`, the IC50 is 0.68 µM in the experiment on NCI-H1975, 14.8 µM in the experiment with HepG2 and 20.9 µM in experiment [1].

For `Brc1cccc(Nc2ncnc3ccccc23)c1`, the IC50 in the experiment with NCI-H1975 came to 10.6 µM; in the experiment with HepG2, 78.6 µM; in experiment [1], 24.7 µM.

Consider `Clc1cccc(Nc2ncnc3ccccc23)c1`, for which the IC50 was determined as 10.4 µM in the experiment on NCI-H1975, 23.5 µM in the experiment with HepG2 and 22 µM in experiment [1].

With `Cc1nc(Nc2ccc(F)c(Cl)c2)c2cc(NC(=O)CCN3CCCCC3)ccc2n1`, the IC50 in the experiment on NCI-H1975 is 0.87 µM; in the experiment on HepG2 it was 3.21 µM; in experiment [1], 2.84 µM.

As for `c1ccc(Nc2ncnc3ccccc23)cc1`, the IC50 in the experiment with NCI-H1975 amounted to 35.6 µM; with HepG2, 65.8 µM; in experiment [1], 35.6 µM.

In the case of `CN(C)CCC(=O)Nc1ccc2ncnc(Nc3ccc(F)c(Cl)c3)c2c1`, the values for the IC50 (with NCI-H1975; with HepG2; in experiment [1]) were 0.36 µM, 9.36 µM and 9.54 µM, respectively. Moreover, in experiment [2], the inhibition entry was “Active”.

As for `Cc1nc(Nc2ccc(F)c(Cl)c2)c2cc(NC(=O)CCN(C)C)ccc2n1`, the IC50 is 0.11 µM with NCI-H1975, 1.86 µM with HepG2 and 1.04 µM in experiment [1]. Further, in experiment [2], the inhibition entry was “Active”.

Regarding `Fc1ccccc1Nc1ncnc2ccccc12`, the IC50 was determined as 10.6 µM in the experiment on NCI-H1975, 69.3 µM in the experiment with HepG2 and 93.9 µM in experiment [1].

With `O=C(CCN1CCOCC1)Nc1ccc2ncnc(Nc3ccc(F)c(Cl)c3)c2c1`, the IC50 in the experiment on NCI-H1975 was 3.01 µM; in the experiment with HepG2, 16.3 µM; in experiment [1] it was 19.6 µM.

For the compound `Fc1ccc(Nc2ncnc3ccccc23)cc1`, the IC50 in the experiment on NCI-H1975 came out at 23.5 µM; with HepG2, 29 µM; in experiment [1], 22 µM.

On to `Fc1cccc(Nc2ncnc3ccccc23)c1`, for which the IC50 in the experiment on NCI-H1975 worked out at 7.58 µM; in the experiment on HepG2, 13.2 µM; in experiment [1] it was 15 µM.

As to `O=C(CCN1CCCCC1)Nc1ccc2ncnc(Nc3ccc(F)c(Cl)c3)c2c1`, the results for the IC50 (in the experiment with NCI-H1975; with HepG2; in experiment [1]) were 1.85 µM, 8.59 µM and 12.6 µM, respectively.

Source of the values: ChEMBL document CHEMBL3808366, “Facile and efficient synthesis and biological evaluation of 4-anilinoquinazoline derivatives as EGFR inhibitors” (Bioorg Med Chem Lett, 2016).
